Experimental data as given in PMC11277489, “Novel Piperazine Derivatives of Vindoline as Anticancer Agents” (International Journal of Molecular Sciences, 2024).

How the values were obtained:
CCRF-CEM = assay: NCI60 one-dose screen (10 μM), Leukemia; type: cell-based; details: Homo sapiens, read-out: Growth percent rate
HL-60(TB) = assay: NCI60 one-dose screen (10 μM), Leukemia; type: cell-based; details: Homo sapiens, HL-60, read-out: Growth percent rate
K-562 = assay: NCI60 one-dose screen (10 μM), Leukemia; type: cell-based; details: Homo sapiens, K562, read-out: Growth percent rate
MOLT-4 = assay: NCI60 one-dose screen (10 μM), Leukemia; type: cell-based, human; details: Homo sapiens, MOLT-4, read-out: Growth percent rate
RPMI-8226 = assay: NCI60 one-dose screen (10 μM), Leukemia; type: cell-based; details: Homo sapiens, RPMI-8226, read-out: Growth percent rate
A549/ATCC = assay: NCI60 one-dose screen (10 μM), Non-small Cell Lung Cancer; type: cell-based; details: Homo sapiens, A549, read-out: Growth percent rate
EKVX = assay: as above; type: cell-based; details: Homo sapiens, read-out: Growth percent rate
HOP-62 = assay: as above; type: cell-based; details: Homo sapiens, HOP-62, read-out: Growth percent rate
NCI-H23 = assay: as above; type: cell-based; details: Homo sapiens, NCI-H23, read-out: Growth percent rate
NCI-H322M = assay: as above; type: cell-based; details: Homo sapiens, read-out: Growth percent rate
NCI-H460 = assay: as above; type: cell-based; details: Homo sapiens, NCI-H460, read-out: Growth percent rate
NCI-H522 = assay: as above; type: cell-based; details: Homo sapiens, NCI-H522, read-out: Growth percent rate
COLO 205 = assay: NCI60 one-dose screen (10 μM), Colon Cancer; type: cell-based, human; details: Homo sapiens, COLO 205, read-out: Growth percent rate
HCT-116 = assay: NCI60 one-dose screen (10 μM), Colon Cancer; type: cell-based; details: Homo sapiens, HCT-116, read-out: Growth percent rate
HCT-15 = assay: NCI60 one-dose screen (10 μM), Colon Cancer; type: cell-based; details: Homo sapiens, HCT-15, read-out: Growth percent rate
KM12 = assay: NCI60 one-dose screen (10 μM), Colon Cancer; type: cell-based, human; details: Homo sapiens, KM12, read-out: Growth percent rate
SW-620 = assay: NCI60 one-dose screen (10 μM), Colon Cancer; type: cell-based; details: Homo sapiens, SW-620, read-out: Growth percent rate
SF-268 = assay: NCI60 one-dose screen (10 μM), CNS Cancer; type: cell-based; details: Homo sapiens, SF-268, read-out: Growth percent rate
SF-295 = assay: NCI60 one-dose screen (10 μM), CNS Cancer; type: cell-based; details: Homo sapiens, SF-295, read-out: Growth percent rate
SF-539 = assay: NCI60 one-dose screen (10 μM), CNS Cancer; type: cell-based, human; details: Homo sapiens, SF-539, read-out: Growth percent rate
SNB-75 = assay: NCI60 one-dose screen (10 μM), CNS Cancer; type: cell-based, human; details: Homo sapiens, SNB-75, read-out: Growth percent rate
U251 = assay: NCI60 one-dose screen (10 μM), CNS Cancer; type: cell-based; details: Homo sapiens, U-251, read-out: Growth percent rate
LOX IMVI = assay: NCI60 one-dose screen (10 μM), Melanoma; type: cell-based, human; details: Homo sapiens, LOX IMVI, read-out: Growth percent rate
MALME-3M = assay: NCI60 one-dose screen (10 μM), Melanoma; type: cell-based; details: Homo sapiens, Malme-3M, read-out: Growth percent rate
MDA-MB-435 = assay: NCI60 one-dose screen (10 μM), Melanoma; type: cell-based; details: Homo sapiens, MDA-MB-435, read-out: Growth percent rate
SK-MEL-2 = assay: NCI60 one-dose screen (10 μM), Melanoma; type: cell-based; details: Homo sapiens, SK-MEL-2, read-out: Growth percent rate
SK-MEL-28 = assay: NCI60 one-dose screen (10 μM), Melanoma; type: cell-based; details: Homo sapiens, SK-MEL-28, read-out: Growth percent rate
UACC-257 = assay: NCI60 one-dose screen (10 μM), Melanoma; type: cell-based; details: Homo sapiens, UACC-257, read-out: Growth percent rate
IGROV1 = assay: NCI60 one-dose screen (10 μM), Ovarian Cancer; type: cell-based; details: Homo sapiens, IGROV-1, read-out: Growth percent rate
OVCAR-3 = assay: NCI60 one-dose screen (10 μM), Ovarian Cancer; type: cell-based; details: Homo sapiens, OVCAR-3, read-out: Growth percent rate
OVCAR-4 = assay: NCI60 one-dose screen (10 μM), Ovarian Cancer; type: cell-based; details: Homo sapiens, OVCAR-4, read-out: Growth percent rate
OVCAR-8 = assay: NCI60 one-dose screen (10 μM), Ovarian Cancer; type: cell-based; details: Homo sapiens, OVCAR-8, read-out: Growth percent rate
786–0 = assay: NCI60 one-dose screen (10 μM), Renal Cancer; type: cell-based; details: Homo sapiens, 786-0, read-out: Growth percent rate
A498 = assay: NCI60 one-dose screen (10 μM), Renal Cancer; type: cell-based; details: Homo sapiens, A498, read-out: Growth percent rate
ACHN = assay: NCI60 one-dose screen (10 μM), Renal Cancer; type: cell-based; details: Homo sapiens, read-out: Growth percent rate
CAKI-1 = assay: NCI60 one-dose screen (10 μM), Renal Cancer; type: cell-based; details: Homo sapiens, CAKI-1, read-out: Growth percent rate
RXF 393 = assay: NCI60 one-dose screen (10 μM), Renal Cancer; type: cell-based, human; details: Homo sapiens, RXF 393, read-out: Growth percent rate
SN12C = assay: NCI60 one-dose screen (10 μM), Renal Cancer; type: cell-based; details: Homo sapiens, read-out: Growth percent rate
TK-10 = assay: NCI60 one-dose screen (10 μM), Renal Cancer; type: cell-based; details: Homo sapiens, TK-10, read-out: Growth percent rate
MCF7 = assay: NCI60 one-dose screen (10 μM), Breast Cancer; type: cell-based; details: Homo sapiens, MCF7, read-out: Growth percent rate
HS 578T = assay: NCI60 one-dose screen (10 μM), Breast Cancer; type: cell-based; details: Homo sapiens, Hs-578T, read-out: Growth percent rate
[1] = tested on: 60 human tumor cell lines (NCI60); assay: NCI60 one-dose screen (10 μM), whole panel; type: cell-based; details: for activity at 10 µM: Homo sapiens, read-out: Growth percent rate, Mean

Question: Which activity at 10 µM (CCRF-CEM) does the source give for `CCC12C=CCN3CCC4(c5ccc(OC)cc5N(C)C4C(O)(C(=O)OC)C1O)C32` (stereo not shown) [Compound 13, 17-desacetylvindoline] here?
Answer: 103%

Question: And the activity at 10 µM (HL-60(TB))?
Answer: 119%

Question: What about the activity at 10 µM (K-562) of the same compound?
Answer: 101%

Question: What about the activity at 10 µM (MOLT-4) of the same compound?
Answer: 100%

Question: And the activity at 10 µM (RPMI-8226)?
Answer: 99.4%

Question: And the activity at 10 µM (A549/ATCC)?
Answer: 103%

Question: And the activity at 10 µM (EKVX)?
Answer: 98.9%

Question: What about the activity at 10 µM (HOP-62) of the same compound?
Answer: 102%

Question: And the activity at 10 µM (NCI-H23)?
Answer: 93%

Question: And the activity at 10 µM (NCI-H322M)?
Answer: 92.8%

Question: And the activity at 10 µM (NCI-H460)?
Answer: 106%

Question: And the activity at 10 µM (NCI-H522)?
Answer: 94%

Question: What about the activity at 10 µM (COLO 205) of the same compound?
Answer: 118%

Question: What about the activity at 10 µM (HCT-116) of the same compound?
Answer: 99.2%

Question: And the activity at 10 µM (HCT-15)?
Answer: 99.2%

Question: What about the activity at 10 µM (KM12) of the same compound?
Answer: 103%

Question: And the activity at 10 µM (SW-620)?
Answer: 99.4%

Question: And the activity at 10 µM (SF-268)?
Answer: 107%

Question: And the activity at 10 µM (SF-295)?
Answer: 101%

Question: What about the activity at 10 µM (SF-539) of the same compound?
Answer: 96.6%

Question: And the activity at 10 µM (SNB-75)?
Answer: 84.9%

Question: And the activity at 10 µM (U251)?
Answer: 99.3%

Question: What about the activity at 10 µM (LOX IMVI) of the same compound?
Answer: 97.5%

Question: What about the activity at 10 µM (MALME-3M) of the same compound?
Answer: 90.8%

Question: What about the activity at 10 µM (MDA-MB-435) of the same compound?
Answer: 89%

Question: What about the activity at 10 µM (SK-MEL-2) of the same compound?
Answer: 116%

Question: What about the activity at 10 µM (SK-MEL-28) of the same compound?
Answer: 92.1%

Question: What about the activity at 10 µM (UACC-257) of the same compound?
Answer: 96.7%

Question: What about the activity at 10 µM (IGROV1) of the same compound?
Answer: 95.8%

Question: What about the activity at 10 µM (OVCAR-3) of the same compound?
Answer: 112%

Question: What about the activity at 10 µM (OVCAR-4) of the same compound?
Answer: 95.8%

Question: And the activity at 10 µM (OVCAR-8)?
Answer: 103%

Question: And the activity at 10 µM (786–0)?
Answer: 97.7%

Question: And the activity at 10 µM (A498)?
Answer: 104%

Question: And the activity at 10 µM (ACHN)?
Answer: 96%

Question: What about the activity at 10 µM (CAKI-1) of the same compound?
Answer: 98.2%

Question: What about the activity at 10 µM (RXF 393) of the same compound?
Answer: 104%

Question: What about the activity at 10 µM (SN12C) of the same compound?
Answer: 99%

Question: And the activity at 10 µM (TK-10)?
Answer: 93.3%

Question: What about the activity at 10 µM (MCF7) of the same compound?
Answer: 95.7%

Question: What about the activity at 10 µM (HS 578T) of the same compound?
Answer: 100%

Question: And the “antiproliferative effect (in words)” value ([1]; 10 μM one-dose, NCI60)?
Answer: a notable antiproliferative effect was not shown

Question: And the activity at 10 µM [1]?
Answer: 98.8%

Question: Which activity at 10 µM (CCRF-CEM) does the source give for `CCC12C=CCN3CCC4(c5cc(NC(=O)CN6CCN(Cc7ccc(F)cc7)CC6)c(OC)cc5N(C)C4C(O)(C(=O)OC)C1OC(C)=O)C32` (stereo not shown) [Compound 19] here?
Answer: 105%

Question: And the activity at 10 µM (HL-60(TB))?
Answer: 101%

Question: What about the activity at 10 µM (K-562) of the same compound?
Answer: 74%

Question: What about the activity at 10 µM (MOLT-4) of the same compound?
Answer: 78%

Question: What about the activity at 10 µM (RPMI-8226) of the same compound?
Answer: 94.1%

Question: And the activity at 10 µM (A549/ATCC)?
Answer: 89%

Question: And the activity at 10 µM (EKVX)?
Answer: 88.8%

Question: What about the activity at 10 µM (HOP-62) of the same compound?
Answer: 106%

Question: And the activity at 10 µM (NCI-H23)?
Answer: 103%

Question: What about the activity at 10 µM (NCI-H322M) of the same compound?
Answer: 98.5%

Question: What about the activity at 10 µM (NCI-H460) of the same compound?
Answer: 129%

Question: And the activity at 10 µM (NCI-H522)?
Answer: 93.5%

Question: What about the activity at 10 µM (COLO 205) of the same compound?
Answer: 101%

Question: What about the activity at 10 µM (HCT-116) of the same compound?
Answer: 101%

Question: And the activity at 10 µM (HCT-15)?
Answer: 95%

Question: And the activity at 10 µM (KM12)?
Answer: 115%

Question: And the activity at 10 µM (SW-620)?
Answer: 118%

Question: What about the activity at 10 µM (SF-268) of the same compound?
Answer: 102%

Question: What about the activity at 10 µM (SF-295) of the same compound?
Answer: 99.8%

Question: What about the activity at 10 µM (SF-539) of the same compound?
Answer: 102%

Question: What about the activity at 10 µM (SNB-75) of the same compound?
Answer: 87.3%

Question: And the activity at 10 µM (U251)?
Answer: 103%

Question: And the activity at 10 µM (LOX IMVI)?
Answer: 99.1%

Question: What about the activity at 10 µM (MALME-3M) of the same compound?
Answer: 102%

Question: What about the activity at 10 µM (MDA-MB-435) of the same compound?
Answer: 103%

Question: And the activity at 10 µM (SK-MEL-2)?
Answer: 103%

Question: What about the activity at 10 µM (SK-MEL-28) of the same compound?
Answer: 109%

Question: What about the activity at 10 µM (UACC-257) of the same compound?
Answer: 98.4%

Question: What about the activity at 10 µM (IGROV1) of the same compound?
Answer: 113%

Question: What about the activity at 10 µM (OVCAR-3) of the same compound?
Answer: 119%

Question: What about the activity at 10 µM (OVCAR-4) of the same compound?
Answer: 102%

Question: And the activity at 10 µM (OVCAR-8)?
Answer: 100%

Question: What about the activity at 10 µM (786–0) of the same compound?
Answer: 92.8%

Question: What about the activity at 10 µM (A498) of the same compound?
Answer: 132%

Question: And the activity at 10 µM (ACHN)?
Answer: 102%

Question: And the activity at 10 µM (CAKI-1)?
Answer: 69.3%

Question: What about the activity at 10 µM (RXF 393) of the same compound?
Answer: 90.4%

Question: And the activity at 10 µM (SN12C)?
Answer: 103%

Question: And the activity at 10 µM (TK-10)?
Answer: 107%

Question: And the activity at 10 µM (MCF7)?
Answer: 80%

Question: What about the activity at 10 µM (HS 578T) of the same compound?
Answer: 110%

Question: And the activity at 10 µM [1]?
Answer: 99.6%
